From patent publication US20040044000A1, “Isoquinoline derivatives as matrix metalloproteinase inhibitors” (priority 2002, published 2004)

How the values were obtained:
Format in all cases: biochemical
[1] = target: T1, MMP-13 catalytic domain (MMP-13CD) (Homo sapiens, UniProt P45452); assay: Inhibition of MMP-13 catalytic domain (thiopeptolide substrate hydrolysis); conditions: Biological Table 1; read-out: MMP-13CD IC50
T1 construct: use the catalytic domain of the MMP-13 enzyme, namely matrix metalloproteinase-13 catalytic domain (“MMP-13CD”), rather than the corresponding full-length enzyme
Method in brief: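 Catalytic domain of MMP-13 (MMP-13CD) with 100 μM Ac-Pro-Leu-Gly-thioester-Leu-Leu-Gly-OEt in 50 mM HEPES pH 7.0, 10 mM CaCl2, 1 mM DTNB at 22° C. Hydrolysis followed by absorbance at 405 nm; IC50 (μM) from multiple compound concentrations.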

[2] = target: T2, MMP-17 catalytic domain (MMP-17CD) (Homo sapiens, UniProt Q9ULZ9); assay: Inhibition of MMP-17 catalytic domain (thiopeptolide substrate hydrolysis)
T2 construct: MMP-3 catalytic domain, MMP-12 catalytic domain, MMP-14 catalytic domain, and MMP-17 catalytic domain
T2 sequence (Q9ULZ9 126-295 limits assumed): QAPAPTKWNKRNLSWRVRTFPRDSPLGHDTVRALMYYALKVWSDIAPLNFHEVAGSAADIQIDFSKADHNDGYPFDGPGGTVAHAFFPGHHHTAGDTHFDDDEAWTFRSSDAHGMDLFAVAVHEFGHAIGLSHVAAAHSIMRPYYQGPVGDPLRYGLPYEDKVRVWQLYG
From the text: (§1) The assays measure the amount by which a test compound reduces the hydrolysis of a thiopeptolide substrate catalyzed by a matrix metalloproteinase enzyme. Such assays are described in detail by Ye et al., in Biochemistry, 1992;31(45):11231-11235, which is incorporated herein by reference. One such assay is described below in Biological Method 1.
(§2) Thiopeptolide substrates show virtually no decomposition or hydrolysis at or below neutral pH in the absence of a matrix metalloproteinase enzyme. A typical thiopeptolide substrate commonly utilized for assays is Ac-Pro-Leu-Gly-thioester-Leu-Leu-Gly-OEt. A 100 μL assay mixture will contain 50 mM of N-2-hydroxyethylpiperazine-N′-2-ethanesulfonic acid buffer (“HEPES,” pH 7.0), 10 mM CaCl2, 100 μM thiopeptolide substrate, and 1 mM 5,5′-dithio-bis-(2-nitro-benzoic acid) (DTNB). The thiopeptolide substrate concentration may be varied, for example from 10 to 800 μM to obtain Km and Kcat values. The change in absorbance at 405 nm is monitored on a Thermo Max microplate reader (molecular Devices, Menlo Park, Calif.) at room temperature (22° C.). The calculation of the amount of hydrolysis of the thiopeptolide substrate is based on E412=13600 M^−1 cm^−1 for the DTNB-derived product 3-carboxy-4-nitrothiophenoxide. Assays are carried out with and without matrix metalloproteinase inhibitor compounds, and the amount of hydrolysis is compared for a determination of inhibitory activity of the test compounds.
(§3) Test compounds were evaluated at various concentrations in order to determine their respective IC50 values, the micromolar concentration of compound required to cause a 50% inhibition of catalytic activity of the respective enzyme.

[3] = target: T3, MMP-12 catalytic domain (MMP-12CD) (Homo sapiens, UniProt P39900); assay: Inhibition of MMP-12 catalytic domain (thiopeptolide substrate hydrolysis)
T3 construct: MMP-3 catalytic domain, MMP-12 catalytic domain, MMP-14 catalytic domain, and MMP-17 catalytic domain
From the text: as §1, §2, §3
(§4) The test described above for the inhibition of MMP-13 may also be adapted and used to determine the ability of the compounds of Formula I to inhibit the matrix metalloproteases MMP-1, MMP-2, MMP-3, MMP-7, MMP-9, MMP-12 and MMP-14.

[4] = target: MMP-3 catalytic domain (MMP-3CD) (Homo sapiens, UniProt P08254); assay: Inhibition of MMP-3 catalytic domain (thiopeptolide substrate hydrolysis, MES pH 6.0)
From the text: as §1, §2, §3
It should be appreciated that the assay buffer used with MMP-3CD was 50 mM N-morpholinoethane sulfonate (“MES”) at pH 6.0 rather than the HEPES buffer at pH 7.0 described above.

[5] = target: MMP-14 catalytic domain (MMP-14CD) (Homo sapiens, UniProt P50281); assay: Inhibition of MMP-14 catalytic domain (thiopeptolide substrate hydrolysis)
From the text: as §1, §2, §3, §4

T3 sequence (P39900 106-263 limits assumed, species assumed): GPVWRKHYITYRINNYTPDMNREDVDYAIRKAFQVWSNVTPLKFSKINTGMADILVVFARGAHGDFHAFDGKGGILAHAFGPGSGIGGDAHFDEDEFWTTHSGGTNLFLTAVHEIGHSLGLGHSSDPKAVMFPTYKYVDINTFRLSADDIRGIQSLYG
Sequence of MMP-3 catalytic domain (MMP-3CD) (P08254 100-272 limits assumed, species assumed): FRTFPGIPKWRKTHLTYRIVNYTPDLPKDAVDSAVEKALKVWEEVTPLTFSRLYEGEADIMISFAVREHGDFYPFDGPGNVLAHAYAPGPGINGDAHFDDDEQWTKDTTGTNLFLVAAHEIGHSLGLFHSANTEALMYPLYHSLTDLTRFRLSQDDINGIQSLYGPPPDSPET

Row | Compound | IC50 [1] [µM] | IC50 [2] [µM] | IC50 [3] [µM] | IC50 [4] [µM] | IC50 [5] [µM]
1 | COc1cccc(CNC(=O)c2ccc3ccn(Cc4ccc(F)c(F)c4)c(=O)c3c2)c1 [Example 24] | 0.093 | > 30 | 14 | > 30 | 0.093
2 | O=C(NCCN1CCOCC1)c1ccc(Cn2ccc3ccc(C#CCc4ccccc4)cc3c2=O)cc1 [Example 21, N-(2-morpholin-4-yl-ethyl)-4-[1-oxo-7-(3-phenylprop-1-ynyl)-1H-isoquinolin-2-ylmethyl]-benzamide] | 0.067 | > 3 | > 100 | 22 | > 100
3 | COc1ccc(CNC(=O)c2ccc3ccn(Cc4ccc(S(C)(=O)=O)cc4)c(=O)c3c2)cc1 [Example 52, 2-(4-methane-sulfonylbenzyl)-1-oxo-1,2-dihydro-isoquinoline-7-carboxylic Acid 4-methoxy-benzylamide] | 0.85 | > 30 | > 30 | > 30 | > 30
